Target: T1, human CYP2A6 enzyme (cytochrome P450 2A6) (Homo sapiens, UniProt P11509)
T1 construct: purchased Life Technologies PV6140; host or cells: insect cells (baculosomes)
T1 sequence (P11509 1-494): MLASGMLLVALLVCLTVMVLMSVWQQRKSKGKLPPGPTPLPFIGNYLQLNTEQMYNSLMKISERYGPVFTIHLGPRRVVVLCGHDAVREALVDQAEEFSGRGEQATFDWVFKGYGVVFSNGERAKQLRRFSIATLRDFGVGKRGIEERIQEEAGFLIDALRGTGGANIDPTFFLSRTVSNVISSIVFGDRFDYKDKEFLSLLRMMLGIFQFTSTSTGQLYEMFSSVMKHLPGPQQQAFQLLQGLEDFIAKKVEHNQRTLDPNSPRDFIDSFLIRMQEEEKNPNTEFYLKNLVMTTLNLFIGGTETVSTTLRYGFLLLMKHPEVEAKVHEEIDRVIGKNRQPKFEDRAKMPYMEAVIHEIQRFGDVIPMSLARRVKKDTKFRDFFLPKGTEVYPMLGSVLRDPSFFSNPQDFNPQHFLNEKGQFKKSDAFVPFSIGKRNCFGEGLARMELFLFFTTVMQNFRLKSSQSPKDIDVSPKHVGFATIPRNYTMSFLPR
Assay: P450 2A6 inhibition assay (Vivid CYP450 Screening Kit, baculosomes)
Type: biochemical
Details: for IC50: microsomes from insect cells expressing human CYP2A6, 10 min pre-incubation, 2 h reaction at room temperature, highest concentration in dose-response curves 40 μM, triplicates; for P450 2A6 inhibition activity (in words): screening at 10 μM followed by dose-response curve; for IC50 of P450 2A6 inhibition (in words): dose-response curve
Procedure: Cytochrome P450 2A6 (Cyp2A6) activity was determined using the Vivid CYP450 Screening Kit (Life Technologies, catalog #PV6140) according to the manufacturer’s instructions. Briefly, a master pre-mix containing baculosomes and regeneration system was prepared using 0.5× Vivid reaction buffer II. The test compounds were dissolved in dimethyl sulfoxide (DMSO) at a concentration of 100 mM. From the stock solutions, each compound was serially diluted in 0.5× Vivid reaction buffer II to make working stocks of 100 μM, 50 μM, 25 μM and so on up to 10 dilutions. It is essential to dilute the DMSO at least 1000-fold when making the working dilutions to prevent its interference with the enzyme activity. An initial high-throughput screening was performed at 10 μM concentration for each compound. For the dose-response curve determination, in a 96-well plate, 40 μL of the diluted solutions of each test compound were added to each well, followed by 50 μl of the master pre-mix, before incubation for 10 min at room temperature. A 10× mixture of Vivid substrate (reconstituted with acetonitrile) and NADP^+ was then prepared. At the end of the incubation period, 10 μL of this solution was added to each well to start the reaction. After 2 hours of incubation in the dark at room temperature, the plate was read at 415 nm on a plate reader (Synergy H1, Biotek). For a positive inhibition control, tranylcypromine (Sigma-Aldrich, cat. #P8511) was used at a final concentration of 100 μM. For a negative (no inhibitor) control, a 1:1000 dilution of pure DMSO in 0.5× Vivid reaction buffer was used. Each concentration in the dose-response curve was set up in triplicates, and each data point was the average of triplicate wells. The % inhibition was calculated using the following equation. %Inhibition=(1−X−B/A−B)*100 where X is the fluorescence observed in presence of the test compound; A is the fluorescence observed in the absence of an inhibitor (no inhibitor control); and B is the fluorescence observed for the positive control. For graphing purposes, percent inhibition vs. anti-log[drug concentration] was plotted. A logistic sigmoidal model was used to fit the data and obtain IC50 values using Graphpad Prism software.
The syntheses of compounds 1 to 7 [Figure 1] were accomplished using the synthetic Schemes 1 and 2. […] Nicotine-mimicking compounds containing imidazole or methyl substituted imidazole side chains with varied sizes of 1–3 carbon alkyl spacers at position 3 of the pyridine ring were synthesized using Scheme 1 (compounds 1, 4 and 7). Based on our previous findings that acetylenic substituents can interact with the P450 active site amino acids and lead to mechanism-based inhibition, triple bond in the form of propargyl ether was incorporated in a second series of compounds at positions 2, 3 or 4 of the pyridine ring as an ether linkage (compounds 3, 6 and 2, respectively). Positions 2 and 4 were used to investigate whether substituted compounds at those positions would show a difference in their inhibition activities compared to the 3-position substituted compound. A longer spacer in between the propargyl ether and the 4-position of the pyridine ring was introduced to investigate whether a greater flexibility in the positioning of the key functional groups (pyridine ring and the alkyne moiety) in the binding site would be achieved. The Vivid CYP450 Screening Kit (Life Technologies, catalog #PV6140) was used for the P450 2A6 inhibition assays. An initial high-throughput screening was performed at a 10 μM concentration followed by a dose-response curve determination.
The inhibition studies on our compounds were performed using a Vivid CYP2A6 Kit (Life Technologies, catalog #PV6140). This kit uses microsomes from insect cells stably expressing human CYP2A6 enzyme. […]

Cc1nccn1Cc1cccnc1 [Compound 7, 3-[(2-methyl-1H-imidazol-1-yl)methyl] pyridine]
IC50: > 40 µM | P450 2A6 inhibition activity (in words): moderate inhibition activity

C#CCOc1ccccn1 [Compound 3, 2-(prop-2-yn-1-yloxy)pyridine]
P450 2A6 inhibition activity (in words): did not inhibit

c1cncc(Cn2ccnc2)c1 [Compound 4, 3-((1H-imidazol-1-yl)methyl)pyridine]
IC50 of P450 2A6 inhibition (in words): single digit micromolar | IC50: 5.02 µM

C#CCOCCCc1ccncc1 [Compound 5, 4-(3-(prop-2-yn-1-yloxy)propyl)pyridine]
IC50: > 40 µM | P450 2A6 inhibition activity (in words): moderate inhibition activity

C#CCOCc1cccnc1 [Compound 6, 3-((prop-2-yn-1-yloxy)methyl)pyridine]
IC50 of P450 2A6 inhibition (in words): single digit micromolar | IC50: 1 µM

C#CCOc1ccncc1 [Compound 2, 4-(prop-2-yn-1-yloxy)pyridine]
IC50: > 40 µM | P450 2A6 inhibition activity (in words): much lower inhibition

Cc1nccn1CCCc1cccnc1 [Compound 1]
IC50 of P450 2A6 inhibition (in words): single digit micromolar | IC50: 9.03 µM

From PMC8555909, “Identification of CYP 2A6 inhibitors in an effort to mitigate the harmful effects of the phytochemical nicotine” (Journal of cancer metastasis and treatment, 2021)
